Assay results from PubChem BioAssay AID1159559 (GlaxoSmithKline (GSK), 2015).
Active and inactive are the calls of the source.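 Rule for the calls: active = compounds whose IC50 against parasite growth in infected mouse cells is below 50000 nM; inactive = the rest.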

test system: T. cruzi Tulahuen in NIH-3T3, beta-gal fluorescence, 4 d; experiment: T. cruzi intracellular growth inhibition, cell-based (AID 1159559)

Row | Compound | IC50
1 | CN1C(=O)c2ccccc2Sc2ccc(NC(=O)NCc3ccco3)cc21 | 10 µM
2 | Cc1c(C(=O)NCCCCn2ccnc2)oc2c(C)cccc12 | 0.2 µM
3 | CCCc1nc2nc(N)nc(N)c2cc1CC | 0.32 µM
4 | Cc1[nH]n2c(=O)c3c(nc2c1-c1ccc(Br)cc1)CCCC3 | 1 µM
5 | Cc1cc(C)n(-c2nc(NC(C)(C)C)nc(N3CCOCC3)n2)n1 | 5 µM
6 | CN(C)Cc1ccc(N2CCC(NS(=O)(=O)c3ccc(Cl)cc3)CC2)cc1 | 0.79 µM
7 | CCCn1c(NC(=O)CCn2cc(Br)cn2)nc2ccccc21 | 5 µM
8 | COc1ccc(Nc2nccc(N(C)c3n[nH]c4c(F)cccc34)n2)cc1S(C)(=O)=O | 2 µM
9 | COc1ccc(S(=O)(=O)NC(C)C)cc1Nc1ncc(-c2cccc(F)c2)cn1 | 0.63 µM
10 | CCCCc1cc(Nc2cc(C3CCC3)[nH]n2)nc(N2CCC2C(N)=O)n1 (configuration not stated) | 3.2 µM
11 | O=c1[nH]c(C=Cc2cccc(OCCOc3ccccc3)c2)nc(O)c1[N+](=O)[O-] | 0.79 µM
12 | Cc1cccc(NS(=O)(=O)c2ccc3c(c2)C(=O)c2cc(S(=O)(=O)Nc4cccc(C)c4C)ccc2-3)c1C | 0.4 µM
13 | CN(Cc1ccccc1)Cc1nnnn1C1CCN(Cc2ccc(-n3ccnc3)cc2)CC1 | 0.4 µM
14 | CC1CN(Cc2ccc(C#N)cc2)CCN1c1ccc(NC(=O)c2ccccc2F)cc1 (configuration not stated) | 25 µM
15 | CC1(Oc2cncc(Cl)c2)CCN(Cc2cc3ccccc3[nH]2)C1 (configuration not stated) | 1 µM
16 | COc1ccc(S(=O)(=O)Nc2ccc(C(=O)Nc3nc(-c4ccccn4)cs3)cc2)cc1 | 0.79 µM
17 | Cn1nccc1NC(=O)Cn1ccc(-c2ccncc2)n1 | > 50 µM (inactive)
18 | COc1ccc(Nc2nc(-c3ccccn3)cc(N3CCCC(O)C3)n2)cc1 (configuration not stated) | 0.63 µM
19 | CC(C(=O)Nc1ccccc1F)N(C)CC(=O)Nc1cccc2ccccc12 (configuration not stated) | 0.4 µM
20 | COc1ccc(S(=O)(=O)Nc2ccc(CN3CCN(C(=O)c4cccc(C#N)c4)CC3)cc2)cc1 | 1 µM
21 | CC(C)(C)Nc1nc(Nc2ccc3c(c2)CS(=O)(=O)C3)nc2[nH]ccc12 | 1 µM
22 | Cc1cccc(N2CCCN(Cc3c[nH]c4ccccc34)CC2)n1 | 0.32 µM

Row | Compound | IC50
23 | Cc1cc(Nc2cc(C3CC3)[nH]n2)nc(N2CCCC2)n1 | 0.079 µM
24 | Cn1nc(C(=O)N2CCc3ccccc32)c2c1CCS(=O)(=O)C2 | 7.9 µM
25 | O=C(NCc1ccc(-n2cccc2)cc1)c1nc(Cn2ccc([N+](=O)[O-])n2)no1 | 2.5 µM
26 | O=C(Nc1ccc(C(F)(F)F)cc1)NC1(C(=O)NCc2ccco2)CCCCC1 | 7.9 µM
27 | CC(C)C[C@H](NC(=O)c1csc(-c2cccs2)n1)C(=O)NC1(C#N)CC1 | 25 µM
28 | COc1ccc(S(=O)(=O)Nc2ccccc2OC)cc1NC(=O)CCCc1c[nH]c2ccccc12 | 1.6 µM
29 | CN(C)CCN(C)Cc1ccc(F)cc1NS(=O)(=O)c1ccc(Cl)c(Cl)c1 | 1.6 µM
30 | COc1cc(NC(=O)Nc2cccc(CNC(=O)OC3CCCCC3)c2)ccc1-c1cnco1 | 1 µM
31 | CN1CCCN(C(=O)c2ccc(N3CCCC3)cc2Cl)CC1 | 0.79 µM
32 | Cc1[nH]n2c(=O)c3c(nc2c1-c1ccc(F)cc1)CCCC3 | 1.6 µM
33 | Cc1ccc(NC(=O)c2ccc(Cl)c(NC(=O)c3ccc([N+](=O)[O-])cc3)c2)cc1 | 0.63 µM
34 | O=C(Nc1nc2ccccc2[nH]1)c1c(O)c2cccc3c2n(c1=O)CC3 | 20 µM
35 | COCCn1c(-c2ccc3c(c2)OCO3)cnc1NCc1ccccc1OC | 7.9 µM
36 | CCNc1cc(-c2ccccn2)nc(Nc2ccc(OC)cc2)n1 | 0.63 µM
37 | Cc1nc2c(-c3n[nH]c(-c4ccccc4N)n3)cccn2c1C | 4 µM
38 | COc1cc(Cl)c(C)cc1NC(=O)c1ccc([N+](=O)[O-])s1 | 0.63 µM
39 | COc1ccc2ncc(Cl)c(CCN3CC[C@@H](NCc4cc5c(cn4)OCS5)[C@H](O)C3)c2n1 | 0.13 µM
40 | COc1ccc(-c2nc3ccncc3c(=O)n2CCOc2ccccc2)cc1 | 0.63 µM
41 | CNc1nc(C)nc(N2CCc3cc(C(=O)NCc4ccc(-c5nccn5C)cc4Cl)ccc32)n1 | 5 µM
42 | CNC(=O)C1Cc2ccccc2N1C(=O)Cc1ccc(F)cc1 (configuration not stated) | > 50 µM (inactive)
43 | Cc1ccc(NC(=O)c2ccc([N+](=O)[O-])s2)cc1S(=O)(=O)N1CCOCC1 | 0.2 µM
44 | NC(=O)c1ncc(N[C@@H]2CCCNC2)nc1Nc1cccc(Cl)c1 | 0.32 µM

Row | Compound | IC50
45 | COc1cc(-c2noc(CC#N)n2)ccc1OC(F)F | 40 µM
46 | O=C(Nc1n[nH]c(-c2ccccn2)n1)C1CC1c1ccccc1 (configuration not stated) | 16 µM
47 | COc1ccc(OC)c(NC(=O)c2ccc([N+](=O)[O-])o2)c1 | 3.2 µM
48 | Cn1nc(-c2ccc(NC(=O)Cc3ccccc3Cl)cc2)c2c(N)ncnc21 | 2 µM
49 | Cc1c([N+](=O)[O-])c(C(=O)Nc2sc3c(c2C#N)CCC(C)C3)nn1C (configuration not stated) | 2.5 µM
50 | CC1CCCCN1C(=O)NCCc1coc(-c2ccc(F)cc2)n1 (configuration not stated) | 0.4 µM
51 | COc1ncc(-c2ccc3nccc(-c4ccncc4)c3c2)cc1NS(=O)(=O)C1CC1 | 0.32 µM
52 | O=C(NCCc1cccnc1)c1ccc(-c2ccccc2F)o1 | 0.1 µM
53 | O=C(Nc1ccccc1)Nc1nc(-c2ccccn2)cs1 | 0.63 µM
54 | O=C(c1ccc(O)c(Cl)c1)N1CCN(c2cnccn2)CC1 | > 50 µM (inactive)
55 | O=C(c1cccc(Nc2ncc(-c3ccc4c(c3)OCO4)cn2)c1)N1CCOCC1 | 6.3 µM
56 | CNc1cc(C)nc(C2CN(C(=O)c3n[nH]c4ccccc34)CCO2)c1 (configuration not stated) | 1.3 µM
57 | Cc1ccc2c(c1)-c1onc(C(=O)N3CCCCC3c3cccnc3)c1CO2 (configuration not stated) | 0.1 µM
58 | O=c1ccc2ccc(F)c3c2n1C[C@H]3CN1CCC(NCc2cc3ccccc3o2)CC1 | 0.4 µM
59 | O=C(COc1ccccc1)Nc1ccccc1C(=O)Nc1nccs1 | > 50 µM (inactive)
60 | O=C(NCC(c1cccs1)N1CCOCC1)c1ccc([N+](=O)[O-])o1 (configuration not stated) | 3.2 µM
61 | CCCN(Cc1ccc(OC)c(OC)c1)Cc1cc(=O)c2c(C)cc(C)cc2[nH]1 | 2 µM
62 | CCOc1ccc(N(C)S(=O)(=O)c2ccc3[nH]cc(C(=O)NC4CCCC4)c(=O)c3c2)cc1 | 7.9 µM
63 | CS(=O)(=O)NC1CCC(Oc2cc3cnccc3cc2-c2ccsc2)CC1 (configuration not stated) | 0.13 µM
64 | COc1ccc([N+](=O)[O-])cc1NC(=O)c1cc(Cl)ccc1O | 32 µM
65 | CC(C(=O)Nc1ccc(Br)cc1)N1CCN(c2ccc([N+](=O)[O-])cc2)CC1 (configuration not stated) | 2.5 µM
66 | N#Cc1cccc(CN2CCC(N(Cc3cccnc3)C(=O)c3cc(F)c(F)cc3F)CC2)c1 | 0.4 µM

Row | Compound | IC50
67 | CCn1nccc1CN(C)C(=O)C=Cc1ccc(Cl)cc1 | 0.2 µM
68 | O=C(NC(c1ccc(Cl)cc1)c1cnccn1)C1CCN(C(=O)Nc2cccc(C(F)(F)F)c2)CC1 (configuration not stated) | 0.63 µM
69 | O=c1[nH]c(NCCCNCc2cc(Br)cc(Br)c2)nc2ccsc12 | 0.63 µM
70 | CNC(=O)C1Cc2ccccc2N1C(=O)COc1cccc(OC)c1 (configuration not stated) | > 50 µM (inactive)
71 | CN(Cc1ccc(C(N)=O)cc1)C(c1ccc(F)cc1)c1cccnc1 (configuration not stated) | 0.16 µM
72 | O=[N+]([O-])c1ccc(C2=CC(c3ccccc3)=NCCN2)cc1 | 0.5 µM
73 | Cc1nc(C(=O)Nc2ccc3c(c2)OCO3)nn1-c1ccc(Cl)cc1 | 6.3 µM
74 | N#Cc1ccc(S(=O)(=O)N2CCN(Cc3cccc(-c4ccncc4)c3)CC2)cc1 | 0.4 µM
75 | Cc1ccccc1CNC(=O)CN(Cc1ccccn1)Cc1ccccn1 | 5 µM
76 | FC(F)(F)c1cc(C2CCCN(Cc3c[nH]c4ccccc34)C2)nc2ncnn12 (configuration not stated) | 1.6 µM
77 | Cc1nc(N2CCC(C(=O)N3CCC(O)(c4cccnc4)CC3)CC2)nc2ccc(C(C)C)cc12 | 1.6 µM
78 | COc1ccc2ncc(F)c(NC(=O)C3(O)CCC(NCc4ccc5c(c4)OCCO5)CC3)c2n1 (configuration not stated) | 0.16 µM
79 | O=C(Nc1ccc(C(=O)N2CCCC2c2ccc3c(c2)OCCCO3)cc1)c1ccco1 (configuration not stated) | 0.5 µM
80 | CC(C)(C)CC(=O)NCCc1csc(-c2ccc(F)cc2)n1 | 1.3 µM
81 | O=c1ccc2ccc(F)c3c2n1C[C@H]3CN1CCN(CC(O)c2cc3c(cn2)OCS3)CC1 (some centres not stated) | 0.63 µM
82 | O=C(NCCc1ccn(-c2ccccc2)n1)C1CCCCC1 | 1.3 µM
83 | O=C(CSc1nnc2ccc(-c3ccc(F)cc3)nn12)N1CCCCC1 | 2.5 µM
84 | COc1ccc(C2=NCC(CSc3nnc(-c4ccc5c(c4)OCO5)o3)S2)cc1 (configuration not stated) | 2.5 µM
85 | O=C(NCCc1csc(-c2cccc(F)c2)n1)c1ccco1 | 1.6 µM
86 | COCc1cc(Nc2ccc(Cl)cc2)nc(-c2ccccn2)n1 | 1.6 µM
87 | Cc1cc2cc(CNc3ccc4c(c3)OCO4)c(=O)n(CCO)c2cc1C | 0.63 µM
88 | O=C(Nc1ccc(C(F)(F)F)cc1)Nc1cccc([N+](=O)[O-])c1 | 1 µM

Row | Compound | IC50
89 | c1ccc(CCNCc2cncc3nc(-c4cnccn4)n(C4CCCCC4)c23)cc1 | 0.32 µM
90 | N#Cc1cccc(Cc2cc(Nc3cc(C4CC4)[nH]n3)nc(N3CC[C@H]3C(N)=O)n2)c1 | 0.4 µM
91 | CC(C)c1nn(-c2nc(N)nc(-c3ccccn3)n2)c(N)c1C1CCCCC1 | 2 µM
92 | COc1ccc(NS(=O)(=O)c2cc(NC(=O)Cc3ccc(C)cc3)ccc2N2CCOCC2)cc1 | 2 µM
93 | c1ccc2sc(Nc3nc4ncccc4[nH]3)nc2c1 | 1 µM
94 | O=C(CCCn1cnc([N+](=O)[O-])n1)Nc1cccc(Cl)c1 | 0.2 µM
95 | COc1ccc(C(=O)Nc2c(C)nn(COc3cccc(C(F)(F)F)c3)c2C)cc1 | 25 µM
96 | COc1ccc2ncc(=O)n(CCN3CCOC(CNCc4ccc(C(F)(F)F)cc4F)C3)c2n1 (configuration not stated) | 0.4 µM
97 | COc1ccc2ncc(=O)n(CCN3CC[C@H](NCc4ncc(Cl)c5[nH]ncc45)[C@H](O)C3)c2n1 | 4 µM
98 | COc1cccc(-c2c(C)nn(-c3nc(N)nc(-c4ccccn4)n3)c2N)c1 | 2.5 µM
99 | COc1cccc2sc(CN(C)C(=O)C3CNCCN3c3ccc(F)cc3)c(C)c12 (configuration not stated) | 0.4 µM
100 | CC(C)(C)CC(=O)NCc1noc(COc2ccccc2)n1 | 2.5 µM
101 | O=C(c1ccc(OCCCc2cnc[nH]2)cc1)C1CC1 | 0.32 µM
102 | CCOc1ccc(NC(=O)c2ccc(NC(=O)NC3CCCCC3)cc2)cc1 | 32 µM
103 | COc1ncc(-c2ccc3nccc(-c4ccncc4)c3c2)cc1NS(C)(=O)=O | 1.6 µM
104 | CCCn1c(NC(=O)Cc2ccc(Cl)cc2)nc2ccccc21 | 0.63 µM
105 | COc1ccc2ncc(Cl)c(CCN3CC[C@H](NCc4cc5c(cn4)OCS5)[C@@H](O)C3)c2n1 | 0.13 µM
106 | CN(C)c1ccc(N)cc1CN(CC1CCCO1)S(C)(=O)=O (configuration not stated) | > 50 µM (inactive)
107 | Cc1ccnc(NS(=O)(=O)c2ccc(NC(=O)c3ccc([N+](=O)[O-])s3)cc2)n1 | 2 µM
